Source: patent US10952431B2, “Releasable encapsulation compositions” (Battelle Memorial Institute, priority 2016, dated 2021)

Experiment: Particle size distribution before and after encapsulation
Type: physicochemical
Conditions: FIG. 6A, non-encapsulated
From the text: FIGS. 6A-6B show charts of the particle size distribution of TAED. […] Upon encapsulation, approximately 50% of the particles are distributed in the particle size range of 1 and 2 microns. This information also confirms the TAED is coated with the nonionic amphiphilic graft copolymer (PLMA-g-PEG).

particle size (majority of particles): 20-30 microns
Structure (SMILES): CC(=O)N(CCN(C(C)=O)C(C)=O)C(C)=O [TAED, tetraacetylethylene-diamine]
